# Assay results from publication PMC11036078, “PD‐1 inhibition with retifanlimab and/or arginase inhibition with INCB001158 in Japanese patients with solid tumors: A phase I study” (Cancer Medicine, 2024).
# Where “and” joins values, the source holds several entries; their conditions need not be identical. Equal values may be shown once. Read-outs that look alike come from different tables or passages of the source.
# What was measured:
# arginase [1] = assay: Pharmacodynamics: plasma arginine levels; format: in vivo, Japanese patients; details: change from baseline
# Experimental: (§1) Pharmacodynamics of INCB001158 alone or in combination were assessed as an exploratory objective. Urine was collected at regular intervals from patients in the INCB001158 monotherapy and combination groups to assess urinary orotic acid levels and evaluate whether INCB001158 inhibits the urea cycle. Plasma samples from patients in these groups were also assessed for ammonia, arginine, and ornithine levels.
# [2] = system: advanced/metastatic solid tumours; details: cited from earlier work
# T‐cell proliferation = system: T‐cell proliferation; parameters: method as in PMID 29254508; details: preclinical; cited from earlier work
# urea cycle = assay: Pharmacodynamics: urinary orotic acid and plasma ammonia (urea cycle inhibition); format: in vivo, Japanese patients
# Experimental: as §1
# [3] = INCB001158 plasma pharmacokinetics (LC-MS/MS, noncompartmental analysis); format: in vivo, Japanese patients; details: for Cmax: read-out: INCB001158 geometric mean Cmax
# Experimental: Pharmacokinetics of single‐agent retifanlimab and INCB001158, and the combination, were secondary endpoints of the study. The detection of anti‐drug antibodies (ADAs) was an exploratory endpoint. Blood samples for retifanlimab PK assessments were taken on days 1 (−2 h pre‐dose, end of infusion, and 6 h post‐dose), 2, 8, and 15 (no specified time) of cycle 1, day 1 of cycles 2–8 (−2 h pre‐dose, and end of infusion on cycles 2 and 6 only), and day 1 of every 4 cycles after cycle 8 (−2 h pre‐dose). Samples for ADA assessment were collected at the same time as for PK analysis, and an additional sample was collected at safety follow‐up on day 15 (no specified time). Blood samples for INCB001158 were collected pre‐dose, 0.5, 1, 2, 4, 6, and 8 h post‐dose on days 1 and 15 of cycle 1, 12 h post‐dose on day 1 of cycle 1, and pre‐dose on days 2 and 8 for cycle 1, and day 1 of cycle 2. Serum concentrations of retifanlimab were determined using an electrochemiluminescence immunoassay method, and plasma concentrations of INCB001158 were measured using a validated liquid chromatography with tandem mass spectrometry assay (Incyte Corporation, Wilmington, DE, USA). ADAs against retifanlimab were monitored using a bridging immunoassay (Incyte Corporation).
# Pharmacokinetics parameters were derived from concentrations versus time data using model‐independent noncompartmental analysis methods (WinNonlin v8.2, Certara USA Inc., Princeton, NJ, USA), and included maximum observed serum or plasma concentration (C max), serum or plasma concentration observed at the end of the dosing interval (C tau), time to maximum observed serum or plasma concentration (t max), area under the serum or plasma concentration–time curve (AUC) from time 0 to the end of the dosing interval (AUCtau), AUC from time 0 to infinity (AUC0‐∞), apparent terminal‐phase disposition half‐life, clearance, and volume of distribution. […]
# arginase [4] = system: arginase; parameters: method as in earlier work; details: phase I/II studies; cited from earlier work
# advanced solid tumors = assay: Clinical activity by investigator per RECIST v1.1 (ORR, DCR, DOR); format: in vivo, Japanese patients; details: n = 6 per group
# Experimental: Preliminary clinical activity of single‐agent retifanlimab and INCB001158, and the combination, was an additional secondary endpoint. Diagnostic imaging was performed by computed tomography scan every 8 ± 1 weeks. Clinical activity was assessed by measuring overall response rate (ORR), defined as the percentage of patients experiencing a complete or partial response (CR or PR) as determined by the investigator according to Response Evaluation Criteria in Solid Tumors (RECIST) v1.1; disease control rate (DCR), defined as the percentage of patients maintaining either an objective response or stable disease (SD) for at least 12 weeks per RECIST v1.1; and duration of response (DOR), defined as the time from first observed response until onset of progressive disease (PD) as determined by the investigator according to RECIST v1.1 or death from any cause.
# Safety and efficacy analyses were conducted in the full analysis set, which comprised all enrolled patients who received at least 1 dose of the study drug.
# Safety data were summarized using descriptive statistics. PK parameters were summarized by study part, treatment regimen, cohort, dose levels, and/or visit. ORR and DCR were reported with their exact 95% confidence intervals (CIs); DOR was based on the Kaplan–Meier estimate of the distribution function, and the estimated median along with 95% CI was reported. Statistical analyses were performed using SAS® software v9.4 or later (SAS Institute Inc., Cary, NC, USA).
# [5] = INCB001158 monotherapy, 33 patients with microsatellite‐stable metastatic colorectal cancer
# [6] = in combination with gemcitabine/cisplatin, phase I/II, advanced biliary tract cancer
# [7] = in combination with pembrolizumab, 43 patients with microsatellite‐stable colorectal cancer
# [8] = steady-state, 100 mg BID oral, monotherapy: two individual values (n = 2), combination n = 5 mean ± SD (geometric mean)
structure (smiles),measurement,setting,value
C[C@H](N)C(=O)N1C[C@H](CCCB(O)O)[C@](N)(C(=O)O)C1 [INCB001158],Plasma arginine levels,arginase [1],Immediate and consistent increases
same,DCR,[2]; [5],27%
same,Number of PRs,[2]; [5],1
same,ORR,[2]; [6],24%
same,Patients with SD,[2]; [6],42%
same,DCR,[2]; [7],30%
same,Number of PRs,[2]; [7],3
same,T‐cell proliferation in the presence of inhibitory granulocytes,T‐cell proliferation,restored T‐cell proliferation
same,Urine orotic acid,urea cycle; change from baseline,no marked rises
same,Symptoms of significant urea cycle inhibition,"urea cycle; e.g., unexplained anorexia, nausea, vomiting",no symptoms
same,Plasma ammonia,urea cycle; patients receiving INCB001158,no concurrent increases
same,Urea cycle inhibition,urea cycle; patients receiving INCB001158,no evidence of consistent urea cycle inhibition
same,PK of INCB001158 in combination with retifanlimab versus INCB001158 monotherapy,[3]; Japanese patients,comparable
same,"Drug–drug interaction (INCB001158 PK, combination vs monotherapy cohorts)",[3]; combination cohort,no drug–drug interaction
same,AUC,"[3]; human, plasma, oral, 100 mg, first dose, 100 mg BID monotherapy, read-out: INCB001158 geometric mean AUC0‐∞",17900 ng·h/mL
same,AUC,"[3]; human, plasma, oral, 100 mg, first dose, 100 mg BID monotherapy, read-out: INCB001158 geometric mean AUCtau",13700 ng·h/mL
same,Cmax,"[3]; human, plasma, oral, 100 mg, first dose, 100 mg BID monotherapy",1740 ng/mL
same,Tmax,"[3]; human, plasma, oral, 100 mg, first dose, 100 mg BID monotherapy, read-out: INCB001158 median tmax",3.9 h
same,AUC,"[3]; human, plasma, oral, 100 mg, steady‐state, 100‐mg BID monotherapy, read-out: INCB001158 geometric mean AUCtau",23200 ng·h/mL
same,Cmax,"[3]; human, plasma, oral, 100 mg, steady‐state, 100‐mg BID monotherapy",2690 ng/mL
same,Tmax,"[3]; human, plasma, oral, 100 mg, steady‐state, 100‐mg BID monotherapy, read-out: INCB001158 median tmax",3.8 h
same,Tmax,"[3]; human, plasma, po, 75 mg, first dose, 75 mg BID oral, n = 3, median (min, max), read-out: INCB001158 tmax",3.9 h
same,Tmax,"[3]; human, plasma, po, 75 mg, steady-state, 75 mg BID oral, n = 3, median (min, max), read-out: INCB001158 tmax",3.9 h
same,Tmax,"[3]; human, plasma, po, 100 mg, first dose, 100 mg BID oral, monotherapy n = 3, combination n = 6, median (min, max), read-out: INCB001158 tmax",3.9 h
same,Tmax,"[3]; human, plasma, po, 100 mg, steady-state, 100 mg BID oral, monotherapy n = 3, combination n = 5, median (min, max), read-out: INCB001158 tmax",3.8 h
same,Vd/F,"[3]; human, plasma, po, 100 mg, steady-state, 100 mg BID oral, monotherapy: two individual values (n = 2), combination n = 5 mean ± SD (geometric mean), read-out: INCB001158 Vz/F",44.9 L
same,half-life,"[3]; human, plasma, po, 100 mg, steady-state, 100 mg BID oral, monotherapy: two individual values (n = 2), combination n = 5 mean ± SD (geometric mean), read-out: INCB001158 t½ (converted)",6.25 h
same,INCB001158 Vz/F,[3]; [8],39.3 L
same,INCB001158 t½,[3]; [8],5.50 h
same,INCB001158 geometric mean Ctau,"[3]; steady‐state, 100‐mg BID monotherapy",1130 ng/mL
same,Plasma arginine levels,arginase [4],increase in plasma arginine levels
same,Best overall response: Complete response,"advanced solid tumors; RECIST v1.1, investigator",0 n (%)
same,Best overall response: Partial response,"advanced solid tumors; RECIST v1.1, investigator",0 n (%)
same,Best overall response: Progressive disease,"advanced solid tumors; RECIST v1.1, investigator",3 (50.0) n (%)
same,Best overall response: Stable disease,"advanced solid tumors; RECIST v1.1, investigator",3 n (%) and 3 (50.0) n (%)
same,Objective response rate,"advanced solid tumors; RECIST v1.1, investigator",0 [0–45.9] n (%) [95% CI]
same,DCR,"advanced solid tumors; RECIST v1.1, 95% CI, 11.8–88.2",50%
